Assay results as given in patent US20160166598A1, “A METHOD FOR TREATING INFECTION, SEPSIS AND INJURY” (priority 2013, published 2016).

What was measured:
[1] = humans, oral and/or intravenous 10, 25, 50, 100 mg/kg; cited from earlier work
human NK(1) receptor = human NK(1) receptor (Homo sapiens, UniProt P25103); conditions: cited from earlier work
[2] = system: isolated guinea-pig mesenteric artery; experiment: Relaxation of isolated mesenteric artery, pressure myograph (Ex 4); conditions: for relaxation / artery diameter: endothelium present (adenosine, AL: with or without); for relaxation of isolated intact mesenteric artery: luminal or abluminal, 0.001 to 1 mM
Protocol: Male guinea pigs (250-300 g) were anesthetised and placed in a cradle and the abdomen opened. Second order mesenteric artery branches were isolated and mounted in a pressure myograph (see FIG. 4) under constant pressure of 60 mmHg and perfusion (luminal flow) of 100 uL/min with Krebs-Henseleit buffer (37° C.). Artery diameter was continuously measured using videomicroscopy (see FIG. 4). For the relaxation/vasodilation experiments arteries were equilibrated and then constricted with 10^−8 M arginine vasopressin (AVP). Adenosine, lidocaine or adenosine-lidocaine together were administered 2) luminally and 2) abluminally and concentration curves were obtained. Stock solutions of adenosine and lidocaine alone or adenosine-lidocaine combined were made in deionized water to 20 mM. A range of volumes were pipetted to provide contact concentrations with the vessel lumen or outer wall that ranged from 0.001 to 1 mM. At the end of experiments, arteries were dilated using calcium-free solution to obtain 100% relaxation. A number of arteries were denuded by introducing 5 ml air into the lumen with flow rate 1000 μl/min. The air outflow was then clamped until the intraluminal pressure reached 70 mmHg, flow rate was reduced to 2 μl/min and the vessel remained pressurized for 10 minutes

Sequence of human NK(1) receptor (P25103 whole entry): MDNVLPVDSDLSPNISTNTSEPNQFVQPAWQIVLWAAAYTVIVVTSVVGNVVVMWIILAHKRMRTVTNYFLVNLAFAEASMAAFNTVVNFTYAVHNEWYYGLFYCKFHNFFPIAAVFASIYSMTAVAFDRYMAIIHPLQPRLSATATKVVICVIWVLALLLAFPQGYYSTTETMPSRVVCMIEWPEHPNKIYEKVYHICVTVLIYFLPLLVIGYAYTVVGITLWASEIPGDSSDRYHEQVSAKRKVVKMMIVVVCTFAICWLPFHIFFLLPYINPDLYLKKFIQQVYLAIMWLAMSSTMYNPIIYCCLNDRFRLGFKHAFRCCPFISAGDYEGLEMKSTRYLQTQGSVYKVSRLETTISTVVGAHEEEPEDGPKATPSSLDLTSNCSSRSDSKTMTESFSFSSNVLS

NC(=O)c1ncn([C@@H]2O[C@H](CO)[C@@H](O)[C@H]2O)c1N [Acadesine, 5-amino-4-imidazole carboxamide ribonucleoside]
safety [1]: safe in humans

Cc1cccc(C)c1NC(=O)CN1CCN(C2CCN(C(=O)c3cc(C(F)(F)F)cc(C(F)(F)F)c3)C(Cc3ccccc3)C2)CC1 (centres unmarked) [R116301]
Ki (human NK(1) receptor): 450 pM
selectivity toward NK(2) and NK(3) receptors (human NK(1) receptor): over 200 fold

Nc1ncnc2c1ncn2[C@@H]1O[C@H](CO)[C@@H](O)[C@H]1O [adenosine]
relaxation / artery diameter [2]: relaxed the mesenteric artery in a dose dependent manner
relaxation of isolated intact mesenteric artery [2]: increased relaxation

CCN(CC)CC(=O)Nc1c(C)cccc1C [lidocaine]
relaxation ([2]; endothelium absent): relaxed the artery
relaxation / artery diameter [2]: did not significantly change mesenteric artery diameter
relaxation of isolated intact mesenteric artery [2]: failed to produce relaxation
